Bridges are numbered along the chain shown (N, C = ends). Where no end group is shown, it is not given here.
Assays:
[1] = tested on: artificial blood vessels produced from 201B7 cells (iPS cells derived from healthy subjects); experiment: Contraction of artificial blood vessels produced from 201B7 iPS cells in response to physiologically active substances; assay type: cell-based, human; details: for contraction rate after perfusion culture: 201B7 co-culture, immediately after start of perfusion culture vs third day of perfusion, FIG. 8B; for contraction reaction: artificial blood vessel of smooth muscle cells alone (201B7 vSMC) compared with 201B7 co-culture with endothelial cells, FIG. 8A; for concentration dependence of contraction rate: iPS cells derived from healthy subjects, U46619 0.05 nM to 0.5 nM, endothelin-1 100 nM to 1000 nM, n=5, FIG. 8C; for contraction reaction (same as with U46619): artificial blood vessels produced from 201B7 cells, physiological vasoconstrictors
Procedure: Next, it was analyzed whether the produced tissue engineered tube reproduces physiological reactions such as contraction and expansion with respect to a physiologically active substance. First, regarding artificial blood vessels produced from 201B7 cells, an artificial blood vessel of only smooth muscle cells (201B7 vSMC) and an artificial blood vessel obtained by seeding and co-culturing blood vessel endothelial cells induced to differentiate from 201B7 in an artificial blood vessel lumen (201B7 co-culture) were produced, and the contraction reaction due to U46619 and KCl was analyzed (FIG. 8A). U46619 is a stable synthetic analog of prostaglandin PGH2 and has an action of inducing blood vessel contraction as a thromboxane A2 receptor agonist. KCl is known to induce blood vessel contraction by membrane potential change. Since an individual difference may occur under a normal contraction amount, U46619 relative is a normalized value obtained by dividing the contraction amount when U46619 is applied by the contraction amount when KCl is applied, which indicates the maximum contraction force. […] NO is a vasodilator and is known to be released from blood vessel endothelial cells. Therefore, it is recognized that the produced artificial blood vessel reproduces the physiological mechanism. […] In the following experiments, artificial blood vessels co-cultured with endothelial cells were used unless otherwise specified.
In order to maintain a more physiological environment, perfusion culture was performed to examine whether the contraction rate was improved (FIG. 8B). Immediately after the start of perfusion culture, U46649 or KCl was applied to an artificial blood vessel produced from 201B7 cells (201B7 co-culture) on the third day of perfusion to analyze the contraction rate. […] It is known that blood vessel tissues change in phenotype, orientation, and the like and mature due to shear stress and blood pressure caused by perfusion culture.
It was analyzed whether the contraction of the artificial blood vessel with respect to U46619 and endothelin-1 depended on the concentration. Artificial blood vessels were produced using iPS cells derived from healthy subjects, and the contraction rates were measured while changing the concentrations of U46619 (0.05 nM to 0.5 nM) and endothelin-1 (100 nM to 1000 nM) (n=5). […] Therefore, it is recognized that the produced artificial blood vessels has have physiological properties.

[2] = tested on: artificial blood vessels produced from iPS cells derived from Werner syndrome patients (WS2-C5 co-culture); experiment: Contraction of artificial blood vessels produced from Werner syndrome patient iPS cells compared with those from healthy subjects; assay type: cell-based, human; details: for contraction against stimulation, WS2-C5 co-culture vs 201B7 co-culture: n=4, FIG. 9A; for relative contraction rate, Werner derived vs WT derived iPSC blood vessels: 200 nM U46619 or 100 nM angiotensin II, contraction amount with 100 mM KCl as 100%, FIG. 9B
Procedure: Next, reactions to U46619 and KCl were analyzed using artificial blood vessels produced from Werner syndrome patients iPS (FIG. 9A). iPS cells derived from healthy subjects and Werner syndrome patients were induced to differentiate into smooth muscle cells and blood vessel endothelial cells to produce artificial blood vessels as described above, and contraction with respect to U46619 and KCl was analyzed.
In addition to U46619, the relative contraction rate was also determined for angiotensin II (FIG. 9B). The artificial blood vessel was contracted by 200 nM U46619 or 100 nM angiotensin II, and the relative contraction rate was calculated with the contraction amount when 100 mM KCl was applied as 100%. […] Hereinafter, the artificial blood vessels produced using iPS cells derived from healthy subjects may be referred to as WT derived iPSC blood vessels, and the artificial blood vessels produced using iPS cells derived from Werner syndrome patients may be referred to as Werner derived iPSC blood vessels.
Artificial blood vessels were produced from iPS cells derived from healthy subjects and Werner syndrome patients and subjected to perfusion culture, and the contraction by U46619 was analyzed (FIG. 9C). […] This is considered to be caused by a decrease in NO production ability of blood vessel endothelial cells derived from iPS cells of Werner syndrome patients.

Row | Molecule | contraction rate after perfusion culture [1] | contraction reaction [1] | contraction against stimulation, WS2-C5 co-culture vs 201B7 co-culture [2] | concentration dependence of contraction rate [1] | relative contraction rate, Werner derived vs WT derived iPSC blood vessels [2] | contraction after perfusion culture, Werner derived vs WT derived iPSC blood vessels ([2]; perfusion culture, FIG. 9C) | contraction reaction (same as with U46619) [1]
1 | [Cl-].[K+] [KCl] | an improvement in contraction rate due to perfusion culture was observed | high contraction was observed | tended to contract more strongly | – | – | – | –
2 | CCCCC[C@H](O)/C=C/[C@@H]1[C@@H](C/C=C\CCCC(=O)O)[C@H]2CO[C@@H]1C2 [U46619] | an improvement in contraction rate due to perfusion culture was observed | high contraction was observed | tended to contract more strongly | contracted in a concentration-dependent manner | exhibited stronger contraction force | an increase in contraction force was observed | –
3 | angiotensin II (DRVYIHPF; Angiotensin-2; UniProt P01019 25-32, looked up) [physiological vasoconstrictor] | – | – | – | – | exhibited stronger contraction force | – | the same contraction reaction occurs
4 | endothelin-1 (CSCSSLMDKECVYFCHLDIIW; disulfide 1-15, 3-11; ends not checked; UniProt P05305 53-73, looked up) [physiological vasoconstrictor] | – | – | – | contracted in a concentration-dependent manner | – | – | the same contraction reaction occurs

From US20260242745A1, “TISSUE ENGINEERED TUBE USING STEM CELL, AND METHOD FOR PRODUCING SAME” (TOHOKU UNIVERSITY, priority 2023, published 2026)
